According to patent US20210139484A1, “DIHYDROISOQUINOLINE-2(1H)-CARBOXAMIDE AND RELATED COMPOUNDS AND THEIR USE IN TREATING MEDICAL CONDITIONS” (GOSSAMER BIO SERVICES, INC., priority 2018, published 2021):

Biological target: T1, human HPK1 protein (Homo sapiens, UniProt Q92918)
T1 construct: recombinant human HPK1 protein (a.a. 1-346) was expressed in Sf9 insect cells; GST (N); purchased Signalchem M23-11G; host or cells: Sf9 insect cells (baculovirus)
T1 sequence (Q92918 1-346): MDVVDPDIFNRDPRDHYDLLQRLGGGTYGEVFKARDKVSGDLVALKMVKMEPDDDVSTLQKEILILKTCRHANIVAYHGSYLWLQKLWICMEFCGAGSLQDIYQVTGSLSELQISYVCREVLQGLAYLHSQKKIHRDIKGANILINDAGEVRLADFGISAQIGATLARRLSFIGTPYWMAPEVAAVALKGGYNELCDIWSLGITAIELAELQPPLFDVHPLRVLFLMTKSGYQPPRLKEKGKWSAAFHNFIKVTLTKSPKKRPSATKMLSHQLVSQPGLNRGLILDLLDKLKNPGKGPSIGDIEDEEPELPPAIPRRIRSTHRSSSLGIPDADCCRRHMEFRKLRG
Experiment: Human HPK1 protein TR-FRET assay
Assay type: biochemical
Settings: 1 mM ATP, Table 19
Method in brief: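 Read-out was TR-FRET using Eu-labeled anti-phospho-CREB (Ser133) antibody, with the 665/615 nm signal ratio normalised to DMSO-only wells and fitted by a 4-parameter logistic model for IC50. Reactions held 10 nM Sf9-expressed GST-HPK1 (a.a. 1-346), 100 nM CREBtide and 1 mM ATP, run 60 minutes at room temperature, pH 7.5.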

Row | Compound | IC50 [nM]
1 | CCN1CCN(Cc2ccc(NC(=O)N3CCc4ccc(Oc5ccnc(NC(C)=O)c5)cc4C3)cc2C(F)(F)F)CC1 [II-14] | < 500
2 | CCN1CCN(Cc2ccc(NC(=O)N3CCc4ccc(Oc5ccnn6cccc56)cc4C3)cc2C(F)(F)F)CC1 [II-19] | < 500
3 | CCN1CCN(Cc2ccc(NC(=O)N3CCc4ncc(Oc5ccnc6[nH]ccc56)cc4C3)cc2C(F)(F)F)CC1 [VII-1] | < 500
4 | Cc1cc2c(Oc3ccc4c(c3)CN(C(=O)Nc3cnc(OC5CCN(C)CC5)c(C(F)(F)F)c3)CC4C)ccnc2[nH]1 (stereo not drawn) [IV-38] | < 500

Now from value to molecule:

Row | IC50 [nM] | Compound
5 | < 500 | CCN1CCN(Cc2ccc(NC(=O)N3Cc4cc(Oc5ccnc6[nH]c(C)cc56)cnc4C(C)C3)cc2C(F)(F)F)CC1 (single isomer, unassigned) [VII-20]
6 | < 500 | CCN1CCN(Cc2ccc(NC(=O)N3Cc4cc(Oc5ccnc6[nH]c(C)cc56)ccc4C(C)C3)cc2C(F)(F)F)CC1 (stereo not drawn) [IV-17]

Same assay, conditions: 1 mM ATP, Table 20

Row | IC50 [nM] | Compound
7 | < 500 | O=C(Nc1ccc(CN2CCNCC2)c(C(F)(F)F)c1)N1CCc2ccc(Oc3c(F)cnc4[nH]c(C5(O)CC5)cc34)cc2C1 [XVIII-5]
8 | < 500 | CC[C@H]1CN(C(=O)Nc2ccc(CN3CCN(C)CC3)c(C(F)(F)F)c2)Cc2cc(Oc3ccnc4[nH]c(-c5n[nH]c(=O)o5)cc34)cnc21 [XIV-114]
9 | < 500 | CCC1CN(C(=O)Nc2ccc(CN3CCN(CC)CC3)c(C(F)(F)F)c2)Cc2cc(Oc3ccnc4[nH]c(C5=CCOC5)cc34)cnc21 (stereo not drawn) [XIV-62]
